US11617804B2, “Hyaluronic acid-based nanoparticles as biosensors for imaging-guided surgery and drug delivery vehicles and methods associated therewith” (Wake Forest University, priority 2014, dated 2023)

What was measured:
[1] = tested on: MDA-MB-231 tumors; assay: In vivo testing, MDA-MB-231-iRFP xenograft: imaging, image-guided tumor removal, relative biodistribution; design: species or system female nude mice; details: I.V. injection of 10 nmol ICG (free or fHNP), 24 hours
Description: Twelve to fourteen week old female nude mice (Jackson Labs) were injected subcutaneously with 2×10^6) MDA-MB-231 cells in 50/50 media/matrigel. MDA-MB-231 cells were transfected with NIR fluorescent protein (iRFP). When the tumors reached 500-1000 mm^3, 10 nmol ICG or fHNP (10 wt % PBA was the hydrophobic ligand in this case) was injected into a tail vein. After 24 hours the mice were euthanized and imaged whole using a LI-COR Pearl Impulse system, which has a “700 nm” channel that can detect iRFP-labeled cell and an “800 nm” channel that can detect ICG or Cy7.5. Mice then underwent image-guided tumor removal with the fluorescence image-guided surgical system method. First, skin was removed to expose the breast tumor xenograft. […] Mice were then re-imaged on the LI-COR system to compare area identified as tumor by the fluorescence image-guided surgical system with iRFP labeled tumors. This was followed by necropsy, further image acquisition for the overall estimation of relative ICG biodistribution, and preparation of tissues for histology.

[2] = tested on: ectopic 4T1 breast tumor; assay: ICG detection in tumor with the fluorescence image-guided surgical system; assay type: in vivo, mouse; details: 0.357 mg/kg ICG via tail vein, 24 hours, laser excitation directed at the tumor
Description: In this experiment, 0.357 mg/kg ICG was systemically administered via a tail vein. After 24 hours, the mouse was euthanized and tumor fluorescence enhancement was assessed by using the fluorescence image-guided surgical system method. When the laser excitation source of fluorescence image-guided surgical system method is directed off the tumor (FIG. 9A,B), no fluorescence enhancement of the tumor is seen. […] This example uses a breast tumor model.

## CC1(C)C(/C=C/C=C/C=C/C=C2\N(CCCCS(=O)(=O)O)c3ccc4ccccc4c3C2(C)C)=[N+](CCCCS(=O)(=O)[O-])c2ccc3ccccc3c21 [ICG, Indocyanine green]
[1]
  Tumor signal enhancement: tumor signal enhancement
[2]
  Tumor fluorescence enhancement: strong fluorescence signal
